In ChEMBL document CHEMBL3046227, “Synthesis and evaluation in vitro of 1-[2-(10-dihydroartemisininoxy) ethyl]-3-phenylurea derivatives as potential agents against cancer” (Med Chem Res, 2013):

Legend:
A549 [1] = assay: Cytotoxicity against Homo sapiens (human) A549 cells after 48 hr by MTT assay; type: functional, cell-based; conditions: A549, 48 h
HepG2 = assay: Cytotoxicity against Homo sapiens (human) HepG2 cells after 48 hr by MTT assay; type: functional, cell-based; conditions: HepG2, 48 h
HL-60 = assay: Cytotoxicity against Homo sapiens (human) HL60 cells after 48 hr by MTT assay; type: functional, cell-based; conditions: HL-60, 48 h
HCT-116 [2] = assay: Cytotoxicity against Homo sapiens (human) HCT116 cells after 48 hr by MTT assay; type: functional, cell-based; conditions: HCT-116, 48 h
HCT-116 [3] = assay: Ratio of dihydroartemisinin IC50 to compound IC50 for Homo sapiens (human) HCT116 cells; type: functional
[4] = Cytotoxicity against Homo sapiens (human) A375-S2 cells after 48 hr by MTT assay; type: functional, cell-based; conditions: A375-S2, 48 h
HeLa = assay: Cytotoxicity against Homo sapiens (human) HeLa cells after 48 hr by MTT assay; type: functional, cell-based
HT-1080 = assay: Cytotoxicity against Homo sapiens (human) HT1080 cells after 48 hr by MTT assay; type: functional, cell-based; conditions: HT-1080, 48 h
MCF7 [5] = assay: Cytotoxicity against Homo sapiens (human) MCF7 cells after 48 hr by MTT assay; type: functional, cell-based; conditions: MCF7, 48 h
A549 [6] = assay: Ratio of dihydroartemisinin IC50 to compound IC50 for Homo sapiens (human) A549 cells; type: functional
K562 = assay: Cytotoxicity against Homo sapiens (human) K562 cells after 48 hr by MTT assay; type: functional, cell-based; conditions: K562, 48 h
U-937 = assay: Cytotoxicity against Homo sapiens (human) U937 cells after 48 hr by MTT assay; type: functional, cell-based; conditions: U-937, 48 h
MCF7 [7] = assay: Ratio of dihydroartemisinin IC50 to compound IC50 for Homo sapiens (human) MCF7 cells; type: functional

| SMILES | IC50 (A549 [1]) | IC50 (HepG2) | IC50 (HL-60) | IC50 (HCT-116 [2]) | Ratio IC50 (HCT-116 [3]) | IC50 [4] | IC50 (HeLa) | IC50 (HT-1080) | IC50 (MCF7 [5]) | Ratio IC50 (A549 [6]) | IC50 (K562) | IC50 (U-937) | Ratio IC50 (MCF7 [7]) |
| --- | --- | --- | --- | --- | --- | --- | --- | --- | --- | --- | --- | --- | --- |
| Cc1ccc(C)c(NC(=O)NCCO[C@H]2O[C@@H]3O[C@@]4(C)CC[C@H]5[C@H](C)CC[C@@H]([C@H]2C)[C@@]35OO4)c1 | 33.7 µM | 23.2 µM | < 1 µM | 47.5 µM | 1.7 | > 100 µM | 31 µM | > 100 µM | 42.2 µM | 1.2 | 23 µM | 2.51 µM |  |
| C[C@H]1[C@@H](OCCNC(=O)Nc2ccc(Cl)cc2)O[C@@H]2O[C@@]3(C)CC[C@H]4[C@H](C)CC[C@@H]1[C@@]24OO3 | 42 µM | 36.3 µM | < 1 µM | 39.5 µM | 1.7 | 41 µM | 20.6 µM | 43.9 µM | 32.8 µM | 1.2 | 32.5 µM | 9.99 µM |  |
| COc1ccc(NC(=O)NCCO[C@H]2O[C@@H]3O[C@@]4(C)CC[C@H]5[C@H](C)CC[C@@H]([C@H]2C)[C@@]35OO4)cc1 | 63.2 µM | 46.2 µM | 2.53 µM | 50.7 µM | 1.7 | > 100 µM | 61.5 µM | > 100 µM | > 100 µM | 1.2 | 55.8 µM | 23.7 µM |  |
| C[C@H]1[C@H](OCCNC(=O)Nc2ccc(Cl)cc2)O[C@@H]2O[C@@]3(C)CC[C@H]4[C@H](C)CC[C@@H]1[C@@]24OO3 | 35.5 µM | 16.6 µM | < 1 µM | 37.8 µM | 1.7 | 9.25 µM | 19.7 µM | 40.3 µM | 25.9 µM | 1.2 | 37.9 µM | 2.6 µM |  |
| C[C@H]1[C@@H](OCCNC(=O)Nc2ccc(Br)cc2)O[C@@H]2O[C@@]3(C)CC[C@H]4[C@H](C)CC[C@@H]1[C@@]24OO3 | 34.2 µM | 23.2 µM | < 1 µM | 26.7 µM | 1.7 | > 100 µM | 18.2 µM | > 100 µM | 25.6 µM | 1.2 | 27.6 µM | 5.2 µM |  |
| C[C@H]1[C@@H](OCCNC(=O)Nc2ccccc2)O[C@@H]2O[C@@]3(C)CC[C@H]4[C@H](C)CC[C@@H]1[C@@]24OO3 | 63.3 µM | 34 µM | 3 µM | 53.8 µM | 1.7 | > 100 µM | 25.1 µM | > 100 µM | 43.7 µM | 1.2 | 25 µM | 6.06 µM |  |
| C[C@H]1[C@H](OCCNC(=O)Nc2ccc(C(F)(F)F)cc2)O[C@@H]2O[C@@]3(C)CC[C@H]4[C@H](C)CC[C@@H]1[C@@]24OO3 | 37.1 µM | 11.7 µM | < 1 µM | 46.4 µM | 1.7 | > 100 µM | 31.7 µM | > 100 µM | > 100 µM | 1.2 | 26.1 µM | < 1 µM |  |
| C[C@H]1[C@H](OCCNC(=O)Nc2ccc([N+](=O)[O-])cc2)O[C@@H]2O[C@@]3(C)CC[C@H]4[C@H](C)CC[C@@H]1[C@@]24OO3 | 49.6 µM | 34.3 µM | < 1 µM | 41 µM | 1.7 | > 100 µM | 64.2 µM | > 100 µM | 94.7 µM | 1.2 | > 100 µM | 9.26 µM |  |
| Cc1ccccc1NC(=O)NCCO[C@H]1O[C@@H]2O[C@@]3(C)CC[C@H]4[C@H](C)CC[C@@H]([C@H]1C)[C@@]24OO3 | 41.7 µM | 53.2 µM | 2.11 µM | 53.8 µM | 1.7 | > 100 µM | 64.7 µM | > 100 µM | 88.9 µM | 1.2 | 29.4 µM | 16.2 µM |  |
| C[C@H]1[C@@H](OCCNC(=O)Nc2ccc([N+](=O)[O-])cc2)O[C@@H]2O[C@@]3(C)CC[C@H]4[C@H](C)CC[C@@H]1[C@@]24OO3 | 53 µM | 39.6 µM | 1.2 µM | 44.4 µM | 1.7 | 35.9 µM | 23 µM | 29.8 µM | 42.2 µM | 1.2 | 32.1 µM | 7.75 µM |  |
| C[C@H]1[C@@H](OCCNC(=O)Nc2ccc(F)cc2)O[C@@H]2O[C@@]3(C)CC[C@H]4[C@H](C)CC[C@@H]1[C@@]24OO3 | 43.7 µM | 26.2 µM | 3.64 µM | 43.7 µM | 1.7 | 33.7 µM | 35.2 µM | 26.8 µM | 46.8 µM | 1.2 | 38.4 µM | 25.2 µM |  |
| Cc1c(Cl)cccc1NC(=O)NCCO[C@H]1O[C@@H]2O[C@@]3(C)CC[C@H]4[C@H](C)CC[C@@H]([C@H]1C)[C@@]24OO3 | 26.2 µM | 40.6 µM | < 1 µM | 22.7 µM | 1.7 | > 100 µM | 25.7 µM | > 100 µM | 36.8 µM | 1.2 | 9.45 µM | 2.59 µM |  |
| C[C@H]1[C@@H](O)O[C@@H]2O[C@@]3(C)CC[C@H]4[C@H](C)CC[C@@H]1[C@@]24OO3 [ARTENIMOL] | 76.2 µM | 30.1 µM | < 1 µM | 95.4 µM |  | 5.48 µM | 8.85 µM | 49.1 µM | 50.2 µM |  | 9.81 µM | < 1 µM |  |
| C[C@H]1[C@@H](OCCNC(=O)Nc2ccc(C(F)(F)F)cc2)O[C@@H]2O[C@@]3(C)CC[C@H]4[C@H](C)CC[C@@H]1[C@@]24OO3 | 29.5 µM | 11.2 µM | < 1 µM | 31.3 µM | 1.7 | > 100 µM | 16.6 µM | > 100 µM | 11.6 µM | 1.2 | 6.97 µM | 1.1 µM | 4 |
| C[C@H]1[C@H](OCCNC(=O)Nc2ccc(Br)cc2)O[C@@H]2O[C@@]3(C)CC[C@H]4[C@H](C)CC[C@@H]1[C@@]24OO3 | 39.4 µM | 24.3 µM | < 1 µM | 35 µM | 1.7 | 23.9 µM | 23.9 µM | 35.2 µM | 25.9 µM | 1.2 | 34.6 µM | < 1 µM |  |
